From patent publication US20020086895A1, “Methods of treating fungal infections” (priority 1985, published 2002)
Where two headings read alike, the source gives them in different places. Blank lines part the entries; values can stand above or below the compound they belong to.

Columns and labels:
[1] = test system: Candida albicans (strain ATCC #90028); assay: Inhibition of Candida spp. culture (XTT); type: cell-based; conditions: for MIC: Candida albicans, ATCC90028, C. albicans, XTT, 22 hours at 35° C., read-out: antifungal MIC; for C. albicans minimum inhibitory concentration (MIC) compared with reported ranges: assay validation
Description: (§1) Candida albicans (strain ATCC #90028), Candida krusei (strain ATCC #90030), and Torulopsis (Candida) glabrata (strain ATCC #6258) were subcultured from cryopreserved stocks onto sabourand dextrose agar plates. Blastoconidia were suspended into RPMI-MOPS (media) and inoculated (500 cfu/well) into 96-well plates containing test compounds in a final volume of 100 μL/well. After 22 hours at 35° C., 25 μL of XTT (2,3-bis(2-methoxy-4-nitro-5-sulfophenyl)-5-[(phenylamino)carbonyl]-2H-tetrazolium hydroxide), (100 μg/mL) with PMS (phenazine methyl sulfate, 5 μM) were added to each well, followed by 2 hours of shaking. Growth was assessed spectrophotometrically by measuring the appearance of soluble formazan stain at 450 nm using an Emax microplate reader.

[2] = test system: Candida krusei (strain ATCC #90030); assay: Inhibition of Candida spp. culture (XTT); type: cell-based; conditions: Pichia kudriavzevii, ATCC90030, C. krusei, 22 hours at 35° C., read-out: antifungal MIC
Description: as §1

[3] = test system: Torulopsis (Candida) glabrata (strain ATCC #6258); assay: Inhibition of Candida spp. culture (XTT); type: cell-based; conditions: T. (C.) glabrata, 22 hours at 35° C., read-out: antifungal MIC
Description: as §1

[4] = test system: nine isolates (Aspergillus and Candida); assay: Standard controls of the antifungal assays of Example 12; type: cell-based
Description: (§2) Test compounds were tested against nine isolates in an eight-point dose response assay ranging from 50 μg/ml to 0.39 μg/ml. Aspergillus MIC's (minimum inhibitory concentrations) were scored visually after 48 and 72 hours at 37° C. […] Amphotericin B (2.5 μg/ml) and 5-flucytosine (2.0 μg ml) were standard controls for each antifungal assay. […] The results are shown below in Table 4, MIC values in μg/ml after 72 hours. HFF toxicity was analyzed after a 24 hour incubation at 37° C. (5% CO2). MTS/PMS was added, and the sample absorbance was read at 450 nm.

[5] = test system: Staphylococcus aureus KLE820; assay: Activity of selected aurones against Staphylococcus aureus KLE820; type: cell-based; conditions: read-out: % Inhibition of growth at 10 ug/ml
Excerpt: Compounds described herein also have activity against bacteria.

[6] = test system: chitin synthase II (CS II); assay: Inhibition of chitin synthase, CS II only; type: biochemical, C. albicans
Description: Plasma membrane was purified from C. albicans (ATCC #90028) according to Orlean, J. Biol. Chem. 262:5732-5-1987. To minimize proteolysis during plasma membrane preparation, 1% fetal calf serum was incorporated into the homogenization buffer. Plasma membrane was activated by trypsin (125 μg/mg protein) in the presence of 1.5 mM UDP-GLcNAc(c) at 25° C. for 5 minutes. The reaction was stopped by the addition of soybean trypsin inhibitor. The activated membranes (0.125 mg membrane protein/mL) were […], 40 mM GlcNAc, 4 mM ^14C-UDP-GlcNAc (specific: 0.25 mCi/mmol) (New England Nuclear Boston, Mass.) and plant extract (100 μg/mL). The incubation was carried out at 37° C. for 1 hour and terminated with the addition of trichloroacetic acid (10%). The reaction mixture was transferred to a pre-wetted glass fiber filter. The filter was washed with 4×200 μL of a 7:3 solution of 95% EtOH and 1 M acetic acid. The filter was dried under a heat lamp and counted in a Microbeta counter (Wallac, Gaithersburg, Md.) after the addition of 25 μL OPTIPHASE SUPERMIX™ (Wallac) scintillation fluid. Nikkomycin Z and Polyoxin D were used as positive controls (Calbiochem, San Diego, Calif.). Vehicle control was carried out with the same amount of DMSO (2%).
The SOP assay described above was modified to pH 7.5 and 5 mM MgCl2 (instead of CoCl2). […]

[7] = molecular target: T1, chitin synthase III (CS III) (Candida albicans, UniProt P30573); assay: Inhibition of chitin synthase, CS III only; type: biochemical, C. albicans
T1 construct: endogenous in cells
T1 sequence (P30573 whole entry): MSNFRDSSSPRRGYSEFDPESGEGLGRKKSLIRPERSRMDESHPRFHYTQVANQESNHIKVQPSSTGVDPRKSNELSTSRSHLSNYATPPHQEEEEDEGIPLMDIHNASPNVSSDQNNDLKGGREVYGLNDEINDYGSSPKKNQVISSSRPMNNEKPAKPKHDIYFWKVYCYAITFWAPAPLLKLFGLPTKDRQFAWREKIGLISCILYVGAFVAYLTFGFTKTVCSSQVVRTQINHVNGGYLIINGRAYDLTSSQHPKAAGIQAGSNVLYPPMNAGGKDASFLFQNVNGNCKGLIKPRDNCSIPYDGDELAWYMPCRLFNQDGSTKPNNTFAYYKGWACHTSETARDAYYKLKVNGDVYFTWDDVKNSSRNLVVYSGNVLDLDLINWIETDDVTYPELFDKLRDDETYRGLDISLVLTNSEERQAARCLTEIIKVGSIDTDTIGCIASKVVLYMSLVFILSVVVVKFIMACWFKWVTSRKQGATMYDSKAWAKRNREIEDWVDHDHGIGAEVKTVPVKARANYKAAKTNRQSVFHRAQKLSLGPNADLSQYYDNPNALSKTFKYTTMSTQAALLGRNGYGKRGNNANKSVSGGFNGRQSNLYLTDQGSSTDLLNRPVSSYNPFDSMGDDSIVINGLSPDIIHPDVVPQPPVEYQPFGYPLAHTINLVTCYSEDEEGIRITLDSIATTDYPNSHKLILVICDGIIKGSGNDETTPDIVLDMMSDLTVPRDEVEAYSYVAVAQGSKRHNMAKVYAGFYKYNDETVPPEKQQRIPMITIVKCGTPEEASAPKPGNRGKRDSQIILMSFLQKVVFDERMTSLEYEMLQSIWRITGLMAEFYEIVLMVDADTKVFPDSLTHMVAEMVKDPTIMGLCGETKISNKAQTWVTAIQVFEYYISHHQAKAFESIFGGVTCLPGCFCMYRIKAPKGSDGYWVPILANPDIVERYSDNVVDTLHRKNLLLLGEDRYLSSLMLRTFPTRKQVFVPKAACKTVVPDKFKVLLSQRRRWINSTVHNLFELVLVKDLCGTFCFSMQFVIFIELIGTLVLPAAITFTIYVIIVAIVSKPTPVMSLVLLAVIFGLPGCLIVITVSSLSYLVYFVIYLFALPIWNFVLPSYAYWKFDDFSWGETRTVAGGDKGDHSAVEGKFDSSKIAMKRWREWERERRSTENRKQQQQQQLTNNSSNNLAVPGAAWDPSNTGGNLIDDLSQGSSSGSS
Description: Plasma membrane was purified from C. albicans (ATCC #90028) according to Orlean, J. Biol. Chem. 262:5732-5-1987. To minimize proteolysis during plasma membrane preparation, 1% fetal calf serum was incorporated into the homogenization buffer. Plasma membrane was activated by trypsin (125 μg/mg protein) in the presence of 1.5 mM UDP-GLcNAc(c) at 25° C. for 5 minutes. The reaction was stopped by the addition of soybean trypsin inhibitor. The activated membranes (0.125 mg membrane protein/mL) were then assayed in a total of 50 μL reaction mixture containing 50 mM Tris-HCl (pH 8.0) 3 mM CoCl2, 40 mM GlcNAc, 4 mM ^14C-UDP-GlcNAc (specific: 0.25 mCi/mmol) (New England Nuclear Boston, Mass.) and plant extract (100 μg/mL). The incubation was carried out at 37° C. for 1 hour and terminated with the addition of trichloroacetic acid (10%). The reaction mixture was transferred to a pre-wetted glass fiber filter. The filter was washed with 4×200 μL of a 7:3 solution of 95% EtOH and 1 M acetic acid. The filter was dried under a heat lamp and counted in a Microbeta counter (Wallac, Gaithersburg, Md.) after the addition of 25 μL OPTIPHASE SUPERMIX™ (Wallac) scintillation fluid. Nikkomycin Z and Polyoxin D were used as positive controls (Calbiochem, San Diego, Calif.). Vehicle control was carried out with the same amount of DMSO (2%). […]

[8] = test system: Candida albicans strain #64, sensitive to fluconazole; assay: Fluconazole-sensitive candidiasis in mice; type: in vivo
Description: Immunocompetent mice (ICR, Sprague-Dawley, Indianapolis, Ind.) were infected with a pathogenic strain (strain #64) of Candida albicans which is sensitive to fluconazole. […] […] […] In addition, the organ fungal load (in CFU) was measured at day 30.

[9] = test system: C. albicans UTR-14, fluconazole-resistant clinical isolate; assay: Fluconazole-resistant candidiasis in mice; type: in vivo
C. albicans = assay: Inhibition of C. albicans with drug combinations; type: cell-based, Candida albicans
Description: as §1
Formula (V) was tested in combination with known antifungal agents amphotericin B and fluconazole. A 10 mg/ml stock solution of formula (V) was diluted in 100% DMSO and stored at −80° C. Fluconazole and Amphotericin B were similarly prepared and stored as a 8 mg/ml stock solution, and a 1.25 mg/ml stock solution, respectively. Each known antifungal agent was added (2 μl/well), then 2 μl/well of the formula (V) solution was added to the designated wells. The remainder of the experiment follows Example 21.

A. funigatis ATCC8001 = assay: Inhibition of fungal growth, MIC scored visually; type: cell-based; conditions: Aspergillus fumigatus
Description: as §2

A. niger = assay: Inhibition of fungal growth, MIC scored visually; type: cell-based; conditions: Aspergillus niger
Description: as §2

A.funigatus 94-2766 = assay: Inhibition of fungal growth, MIC scored visually; type: cell-based; conditions: Aspergillus fumigatus, 942766
Description: as §2

C. tropicalis ATCC75O = assay: Inhibition of fungal growth, MIC scored visually; type: cell-based; conditions: Candida tropicalis, 24 hour incubation at 35° C., read-out: Minimum Inhibitory Concentration
Description: as §2

C. albicans ATCC90028 = assay: Inhibition of fungal growth, MIC scored visually; type: cell-based; conditions: Candida albicans, 24 hour incubation at 35° C., read-out: Minimum Inhibitory Concentration
C. krusei ATCC6258 = assay: Inhibition of fungal growth, MIC scored visually; type: cell-based, Candida krusei; conditions: Pichia kudriavzevii, 24 hour incubation at 35° C., read-out: Minimum Inhibitory Concentration
Description: as §2

[10] = test system: C. glabrata (Fluconazole resistant); assay: Inhibition of fungal growth, MIC scored visually; type: cell-based, Candida glabrata; conditions: Nakaseomyces glabratus; fluconazole resistant clinical isolate; 24 hour incubation at 35° C.; read-out: Minimum Inhibitory Concentration
[11] = test system: C. parapsilosis ATCC90018; assay: Inhibition of fungal growth, MIC scored visually; type: cell-based, Candida parapsilosis; conditions: Lodderomyces parapsilosis, 24 hour incubation at 35° C., read-out: Minimum Inhibitory Concentration
Description: as §2

MIC [1]: 25 µg/mL | MIC [2]: 7.48 µg/mL | MIC [3]: 1.74 µg/mL
Compound: CC(C)=CCc1c(O)cc2c(c1O)C(=O)/C(=C\c1cc(O)c(O)cc1-c1c(O)cc3c(c1O)C(=O)/C(=C\c1ccc(O)c(O)c1)O3)O2 [Formula (VI)]

C. albicans minimum inhibitory concentration (MIC) compared with reported ranges [1]: within reported ranges
Compound: Nc1nc(=O)[nH]cc1F [5-flucytosine]
inhibition by standard control ([4]; 2.0 μg ml): total inhibition

Compound: CCCCCOc1ccc(/C=C2\Oc3cc(O)cc(O)c3C2=O)cc1
inhibition at 10 µg/mL [5]: 98.6%

Compound: C[C@@H]([C@H](N)C(=O)N[C@H](C(=O)O)[C@H]1O[C@@H](n2ccc(=O)[nH]c2=O)[C@H](O)[C@@H]1O)[C@H](O)c1ccc(O)cn1 [Nikkomycin Z, reference compound]
C. albicans minimum inhibitory concentration (MIC) compared with reported ranges [1]: within reported ranges | CS II remaining ([6]; 10 μM Nikkomycin Z, pH 7.5, 5 mM MgCl2): 75%

Compound: COc1ccc(/C=C2\Oc3cc(O)c(C/C=C/c4ccccc4)c(O)c3C2=O)cc1
inhibition at 10 µg/mL [5]: 83%

Compound: CC(C)=CCc1c(O)cc2c(c1O)C(=O)C(=Cc1ccc(O)c(O)c1)O2 [Formula (V), 5-prenylaureusidin]
MIC [1]: 12.5 µg/mL | MIC [2]: 6.25 µg/mL | MIC [3]: 6.25 µg/mL | IC50 [6]: 223 µM | IC50 [7]: 107 µM | percent survival after 30 days ([8]; 20 mg per kg body weight i.p., once a day for 10 days): about 70% | percent survival after 30 days ([8]; 40 mg per kg body weight p.o., once a day for 10 days): about 60% | fungal load reduction in each organ ([8]; day 30): over 99% | percent survival after 20 days ([9]; 40 mg per kg body weight p.o.): about 80% | combination effect with Amphotericin B (C. albicans; in combination with Amphotericin B): apparent synergy | combination effect with fluconazole (C. albicans; in combination with fluconazole): apparent additivity

Compound: C=CCc1c(O)cc2c(c1O)C(=O)/C(=C/c1ccc(-c3ccccc3C(F)(F)F)o1)O2
inhibition at 10 µg/mL [5]: 76.5%

Compound: O=C1/C(=C/c2cc(Cl)cc(Cl)c2O)Oc2cc(O)c(Cc3ccccc3)c(O)c21
inhibition at 10 µg/mL [5]: 100%

Compound: O=C1/C(=C/c2c(Br)cc(Br)c(O)c2Br)Oc2cc(O)c(Cc3ccccc3)c(O)c21
inhibition at 10 µg/mL [5]: 100%

Compound: CC(C)(C)c1ccc(/C=C2\Oc3cc(O)cc(O)c3C2=O)cc1 [Formula S02]
MIC (A. funigatis ATCC8001; ATCC8001, ATCC8001 (X2), value outside parentheses, read-out: Minimum Inhibitory Concentration): 6.25 µg/mL | MIC (A. funigatis ATCC8001; ATCC8001, read-out: Minimum Inhibitory Concentration (value in parentheses), ATCC8001 (X2), value in parentheses, not defined (scored after 48 and 72 hours)): > 50 µg/mL | MIC (A. funigatis ATCC8001; ATCC8001, read-out: Minimum Inhibitory Concentration, ATCC8001 (X1), 37° C.): 12.5 µg/mL | MIC (A. niger; clinical isolate, value outside parentheses, read-out: Minimum Inhibitory Concentration): > 50 µg/mL | MIC (A. niger; value in parentheses, not defined (scored after 48 and 72 hours), read-out: Minimum Inhibitory Concentration (value in parentheses)): > 50 µg/mL | MIC (A.funigatus 94-2766; 94-2766, value in parentheses, not defined (scored after 48 and 72 hours), read-out: Minimum Inhibitory Concentration (value in parentheses)): > 50 µg/mL | MIC (A.funigatus 94-2766; 94-2766 clinical isolate, value outside parentheses, read-out: Minimum Inhibitory Concentration): 6.25 µg/mL | MIC (C. tropicalis ATCC75O): 12.5 µg/mL | MIC (C. albicans ATCC90028): 12.5 µg/mL | MIC (C. krusei ATCC6258): 6.25 µg/mL | MIC [10]: 0.39 µg/mL | MIC [11]: 6.25 µg/mL

C. albicans minimum inhibitory concentration (MIC) compared with reported ranges [1]: within reported ranges
Compound: C[C@@H]1[C@H](O)[C@@H](C)/C=C/C=C/C=C/C=C/C=C/C=C/C=C/[C@H](O[C@@H]2O[C@H](C)[C@@H](O)[C@H](N)[C@@H]2O)C[C@@H]2O[C@](O)(C[C@@H](O)C[C@@H](O)[C@H](O)CC[C@@H](O)C[C@@H](O)CC(=O)O[C@H]1C)C[C@H](O)[C@H]2C(=O)O [Amphotericin B]
inhibition by standard control ([4]; 2.5 μg/ml): total inhibition

Compound: OC(Cn1cncn1)(Cn1cncn1)c1ccc(F)cc1F [fluconazole, reference compound]
C. albicans minimum inhibitory concentration (MIC) compared with reported ranges [1]: within reported ranges | percent survival after 30 days ([8]; 40 mg per kg body weight, twice a day): about 30% | percent survival after 20 days ([9]; 40 mg per kg body weight p.o. (twice daily)): 0%
